Source: article PMC9147192, “Small Molecule Arranged Thermal Proximity Coaggregation (smarTPCA)—A Novel Approach to Characterize Protein–Protein Interactions in Living Cells by Similar Isothermal Dose–Responses” (International Journal of Molecular Sciences, 2022)
Values joined by “and” are separate entries in the source; they are usually repeats but may differ in a detail not shown here. Equal values may be shown once.

Columns and labels:
MAPKAPK2 = MAPKAPK2 (Homo sapiens, UniProt P49137); experiment: TPP-CCR in living HL-60 cells; conditions: […] °C, TMT-MS
MAPK14 [1] = molecular target: MAPK14 (Homo sapiens, UniProt Q16539); experiment: CETSA in living HL-60 cells, immunoblot; type: cell-based
Protocol: First, we conducted CETSA experiments according to Jafari et al.. […] Subsequent SDS-PAGE and immunoblotting were performed according to optimized conditions allowing for parallel detection of MAPK14, MAPKAPK2, MAPKAPK3, and GSK-3α (Supplementary Figure S1).
HL-60 cells (ATCC No. CCL-240) were expanded to about […] in 80 mL cell culture medium (RPMI-1640 supplemented with 10% (v/v) FBS, 1% (v/v) penicillin-streptomycin and 1% (v/v) L-glutamine solution) and divided into four aliquots (20 mL each, 25 million cells per flask). […] The same volume of DMSO was added to the remaining aliquot serving as the vehicle (DMSO) control. After incubation (1 h, 37 °C, 5% CO2, in cell culture CO2 incubator), the cell suspensions were transferred into 50 mL conical tubes, cell number and viability were determined, and after centrifugation (300 relative centrifugal force (rcf), 3 min, room temperature (r.t.)), the supernatants were completely removed and discarded. The cells were washed using 20 mL Dulbecco’s phosphate-buffered saline (PBS), respectively, by resuspension and centrifugation (300 rcf, 3 min, r.t.). After the complete removal of the supernatants, the cells were transferred into pre-weighed 2 mL Eppendorf tubes using 0.5 mL PBS (r.t.), respectively, for resuspending. After centrifugation (300 rcf, 3 min, r.t.) and removing as much as possible of the supernatants, the cell wet weights were determined.
The suspensions were shortly centrifuged (1 s or less) using a benchtop centrifuge that was equipped with an inset for PCR tubes to release trapped air and to achieve an even liquid level without pelleting the cells. The 100 µL cell suspensions were then temperature treated by a 7 min pre-incubation at r.t., a 3 min incubation at the following different temperatures in the PCR cycler (DNA Engine Tetrad 2, lid temperature 70 °C, gradient block 1: 36–55 °C, gradient block 2: 48–67 °C), and a 3 min post-incubation at r.t. in a metal heating block for uniform heat dissipation.
The cells were lysed by four freeze/thaw cycles consisting of thawing the samples (in a heat block set to 25 °C and shaking at 1250 rpm) accompanied by mixing them several times by inversion and then shock freezing them again in liquid nitrogen. The resulting lysates were kept cold (on ice or 4 °C) from then on. After centrifugation (20,000 rcf, 30 min, 4 °C) to pellet the cell debris together with precipitated and aggregated proteins, the supernatants were recovered and, after determining the total protein concentration (Pierce 660 nm Protein Assay, BSA as standard), the resulting cell extracts containing the fraction of soluble, non-denatured proteins were shock frozen in liquid nitrogen and stored at −80 °C.
For each sample set comprising either ten temperature range samples or ten compound concentration range samples, the same volume of the cell extracts containing the fraction of soluble, non-denatured proteins was used for further analysis. This volume was determined using the two lowest temperature samples (36.5 and 41.2 °C) per temperature range sample set so that they contained an average of 5 µg total protein (e.g., 2.78 µL for all temperature range samples of a sample set whose two lowest temperature samples contain an average of 1.8 mg/mL protein). For the compound concentration range experiments, all samples of a set were used for averaging.

MRPS34 = MRPS34 (Homo sapiens, UniProt P82930); experiment: TPP-CCR in living HL-60 cells
MARS = MARS (Homo sapiens, UniProt P56192); experiment: TPP-CCR in living HL-60 cells
STX4 = STX4 (Homo sapiens, UniProt Q12846); experiment: TPP-CCR in living HL-60 cells
MAPK14 [2] = conditions: cited from earlier work
MAPKAPK3 = system: MAPKAPK3; design: method as in PMID 23398362; conditions: cited from earlier work
NAPG = NAPG (Homo sapiens, UniProt Q99747); experiment: TPP-CCR in living HL-60 cells
WDR46 = WDR46 (Homo sapiens, UniProt O15213); experiment: TPP-CCR in living HL-60 cells
MYLK = system: MYLK; design: method as in PMID 23398362; conditions: cited from earlier work
[3] = living HL-60 cells, […] °C, TMT-MS

MAPK14 (Homo sapiens, UniProt Q16539), sequence (Q16539 whole entry): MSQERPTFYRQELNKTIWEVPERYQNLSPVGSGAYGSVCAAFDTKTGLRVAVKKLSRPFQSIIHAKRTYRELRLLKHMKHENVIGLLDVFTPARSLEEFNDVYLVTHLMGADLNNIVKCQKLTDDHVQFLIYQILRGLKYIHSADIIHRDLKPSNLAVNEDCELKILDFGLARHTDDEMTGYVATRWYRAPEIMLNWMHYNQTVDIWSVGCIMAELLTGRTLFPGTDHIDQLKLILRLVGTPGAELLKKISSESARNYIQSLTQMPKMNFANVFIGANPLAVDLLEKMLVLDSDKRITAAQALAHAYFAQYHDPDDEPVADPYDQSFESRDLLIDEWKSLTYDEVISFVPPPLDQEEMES
NAPG, sequence (Q99747 whole entry): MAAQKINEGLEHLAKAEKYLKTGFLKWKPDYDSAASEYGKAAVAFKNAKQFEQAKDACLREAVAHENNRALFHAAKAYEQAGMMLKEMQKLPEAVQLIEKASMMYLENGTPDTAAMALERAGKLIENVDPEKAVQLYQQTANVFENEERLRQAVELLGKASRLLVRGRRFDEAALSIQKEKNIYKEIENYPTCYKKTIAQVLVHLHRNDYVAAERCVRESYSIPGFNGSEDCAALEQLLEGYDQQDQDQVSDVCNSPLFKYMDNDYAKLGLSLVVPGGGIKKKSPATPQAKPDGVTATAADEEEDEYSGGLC
MARS, sequence (P56192 whole entry): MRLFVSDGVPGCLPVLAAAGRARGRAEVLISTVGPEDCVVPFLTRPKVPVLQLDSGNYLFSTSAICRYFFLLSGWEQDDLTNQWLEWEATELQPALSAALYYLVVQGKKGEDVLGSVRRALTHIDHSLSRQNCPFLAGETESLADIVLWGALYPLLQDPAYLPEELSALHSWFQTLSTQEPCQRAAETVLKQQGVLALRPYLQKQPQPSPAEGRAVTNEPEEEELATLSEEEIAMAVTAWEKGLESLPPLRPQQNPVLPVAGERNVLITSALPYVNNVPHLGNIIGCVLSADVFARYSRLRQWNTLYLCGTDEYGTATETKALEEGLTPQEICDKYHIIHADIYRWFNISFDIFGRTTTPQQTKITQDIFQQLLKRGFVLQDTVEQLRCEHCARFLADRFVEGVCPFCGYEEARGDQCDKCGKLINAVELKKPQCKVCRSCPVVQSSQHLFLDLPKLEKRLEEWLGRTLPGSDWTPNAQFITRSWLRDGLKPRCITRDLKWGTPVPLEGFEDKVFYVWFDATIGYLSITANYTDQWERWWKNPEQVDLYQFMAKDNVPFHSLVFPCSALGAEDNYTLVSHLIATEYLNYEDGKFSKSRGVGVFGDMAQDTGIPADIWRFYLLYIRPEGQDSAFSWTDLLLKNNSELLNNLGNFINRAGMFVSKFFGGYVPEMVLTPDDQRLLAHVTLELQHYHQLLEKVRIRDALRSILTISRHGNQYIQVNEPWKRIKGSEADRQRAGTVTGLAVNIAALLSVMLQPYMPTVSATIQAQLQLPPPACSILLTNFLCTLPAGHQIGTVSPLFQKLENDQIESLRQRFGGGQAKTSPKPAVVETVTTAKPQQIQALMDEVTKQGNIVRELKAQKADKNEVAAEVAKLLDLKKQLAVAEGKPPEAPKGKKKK
WDR46, sequence (O15213 whole entry): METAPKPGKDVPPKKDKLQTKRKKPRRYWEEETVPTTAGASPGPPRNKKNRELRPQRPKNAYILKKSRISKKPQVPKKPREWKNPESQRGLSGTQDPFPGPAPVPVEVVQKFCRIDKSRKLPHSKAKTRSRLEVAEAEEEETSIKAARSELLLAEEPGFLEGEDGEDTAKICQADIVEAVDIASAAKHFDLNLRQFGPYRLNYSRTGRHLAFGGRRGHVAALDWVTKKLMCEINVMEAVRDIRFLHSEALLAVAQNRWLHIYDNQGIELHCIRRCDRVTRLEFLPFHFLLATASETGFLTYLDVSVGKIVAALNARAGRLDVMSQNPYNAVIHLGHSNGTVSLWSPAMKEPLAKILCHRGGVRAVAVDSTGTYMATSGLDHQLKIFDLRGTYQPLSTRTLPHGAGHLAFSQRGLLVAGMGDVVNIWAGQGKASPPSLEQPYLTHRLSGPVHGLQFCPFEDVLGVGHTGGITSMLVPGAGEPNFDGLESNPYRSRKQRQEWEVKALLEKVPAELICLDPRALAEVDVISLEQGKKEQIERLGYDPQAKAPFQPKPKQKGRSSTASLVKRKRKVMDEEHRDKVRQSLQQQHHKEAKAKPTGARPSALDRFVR
STX4, sequence (Q12846 whole entry): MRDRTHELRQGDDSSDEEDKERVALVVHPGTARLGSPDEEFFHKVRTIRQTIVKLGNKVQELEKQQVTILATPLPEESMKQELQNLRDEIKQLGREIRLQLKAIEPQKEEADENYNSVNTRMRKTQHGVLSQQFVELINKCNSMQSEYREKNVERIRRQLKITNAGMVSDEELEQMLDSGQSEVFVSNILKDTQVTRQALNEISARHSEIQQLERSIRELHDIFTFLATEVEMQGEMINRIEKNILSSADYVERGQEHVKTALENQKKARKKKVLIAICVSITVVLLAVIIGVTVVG
MAPKAPK2, sequence (P49137 whole entry): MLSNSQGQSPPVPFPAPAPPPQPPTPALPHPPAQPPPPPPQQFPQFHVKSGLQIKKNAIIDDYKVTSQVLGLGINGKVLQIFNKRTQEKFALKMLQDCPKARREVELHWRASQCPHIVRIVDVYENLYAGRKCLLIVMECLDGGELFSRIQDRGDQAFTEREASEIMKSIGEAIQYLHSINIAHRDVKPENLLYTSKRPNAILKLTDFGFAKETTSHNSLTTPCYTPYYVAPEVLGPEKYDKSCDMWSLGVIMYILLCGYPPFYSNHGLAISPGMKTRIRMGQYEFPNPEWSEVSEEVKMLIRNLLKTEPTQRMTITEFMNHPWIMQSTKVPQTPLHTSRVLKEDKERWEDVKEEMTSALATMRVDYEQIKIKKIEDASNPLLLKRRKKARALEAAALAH
MAPKAPK2, sequence (Q16539 2-360 partner limits assumed): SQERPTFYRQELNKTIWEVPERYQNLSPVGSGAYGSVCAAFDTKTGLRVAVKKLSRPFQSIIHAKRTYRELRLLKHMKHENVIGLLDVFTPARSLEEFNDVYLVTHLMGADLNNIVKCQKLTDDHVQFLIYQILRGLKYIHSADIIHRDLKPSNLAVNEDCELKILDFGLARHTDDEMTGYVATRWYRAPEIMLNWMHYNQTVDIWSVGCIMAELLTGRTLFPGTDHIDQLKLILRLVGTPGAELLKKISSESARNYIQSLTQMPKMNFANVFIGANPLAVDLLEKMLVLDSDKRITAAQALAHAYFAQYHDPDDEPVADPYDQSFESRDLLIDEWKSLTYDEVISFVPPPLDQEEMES

SMILES | Hill slope (MAPKAPK2) (MAPKAPK2) | ΔTm at 20 µM (MAPK14 [1]; HL-60, living HL-60 cells, 20 µM inhibitor, read-out: ΔTm to DMSO (MAPK14)) [°C] | Tm (MAPK14 [1]; MAPK14, living cells) [°C] | ΔTm to DMSO (MAPK14 [1]; MAPK14, living cells) [°C] | Tm (MAPK14) (MAPK14 [1]; living HL-60 cells, 20 µM inhibitor) | ΔTm to DMSO (MAPK14) (MAPK14 [1]; living HL-60 cells, 20 µM inhibitor, 20 µM) [°C] | EC50 (MRPS34) [nM] | Hill slope (MRPS34) (MRPS34; [3]) | EC50 (MARS) [nM] | Hill slope (MARS) (MARS; [3]) | EC50 (STX4) [nM] | Hill slope (STX4) (STX4; [3]) | activity against MAPK14 (MAPK14 [2]) | activity against MAPKAPK3 (MAPKAPK3) | EC50 (NAPG) [nM] | Hill slope (NAPG) (NAPG; [3]) | EC50 (WDR46) [nM] | Hill slope (WDR46) (WDR46; [3]) | activity against MYLK (MYLK)
Cn1c(NC[C@@H](N)Cc2ccccc2)nc(-c2ccncc2)c(-c2ccc3ccccc3c2)c1=O [AMG-548] | 0.72 | 14.8 | 60.58 | 14.76 | 60.6 ± 0.5 °C and 60.58 °C | 14.76 | 60.3 | 0.26 | 209 | 0.40 | 132 | 0.27 |  |  |  |  |  |  | 
C[S+]([O-])c1ccc(-c2nc(-c3ccncc3)c(-c3ccc(F)cc3)[nH]2)cc1 (stereo not shown) [SB203580] |  |  |  |  |  |  |  |  |  |  |  |  | high activity | inactivity | 1.95 | 0.24 | 32.4 | 0.23 | inactivity
